Like-named read-outs stand apart in the source and are kept apart here. One block for each compound: values may come before it.
Tests used:
[1] = Solubility in bath solution; type: physicochemical; details: read-out: solubility limit
mouse BASIC [2] = assay: Two-electrode voltage clamp, oocytes expressing mouse BASIC
rat BASIC [3] = biological target: T1, rat BASIC (Rattus norvegicus, UniProt Q9R0W5); assay: Two-electrode voltage clamp, Xenopus laevis oocytes expressing rat BASIC; details: for IC50: read-out: IC50 of BASIC inhibition
T1 sequence (Q9R0W5 1-495): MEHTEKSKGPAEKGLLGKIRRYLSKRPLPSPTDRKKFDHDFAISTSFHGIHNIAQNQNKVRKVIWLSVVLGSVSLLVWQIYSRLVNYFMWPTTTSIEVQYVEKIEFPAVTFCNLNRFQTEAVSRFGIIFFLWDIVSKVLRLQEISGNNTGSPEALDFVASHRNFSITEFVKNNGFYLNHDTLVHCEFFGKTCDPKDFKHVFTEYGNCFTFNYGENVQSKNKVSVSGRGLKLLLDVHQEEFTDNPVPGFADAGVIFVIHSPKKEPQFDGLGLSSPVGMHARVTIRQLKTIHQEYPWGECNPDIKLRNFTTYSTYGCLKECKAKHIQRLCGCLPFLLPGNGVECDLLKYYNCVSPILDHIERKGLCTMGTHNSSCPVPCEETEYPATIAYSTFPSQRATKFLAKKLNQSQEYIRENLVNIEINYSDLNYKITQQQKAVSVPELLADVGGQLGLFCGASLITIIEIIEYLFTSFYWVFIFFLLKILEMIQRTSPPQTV

mouse BASIC [4] = test system: T2, mouse BASIC; design: method as in PMID 21828194; details: cited from earlier work
T2 construct: expressed in transfected cells; host or cells: Xenopus laevis oocytes injected with cRNA

human BASIC = test system: human BASIC; design: method as in PMID 21828194; details: cited from earlier work
rat BASIC [5] = biological target: T1, rat BASIC; design: expressed in transfected cells; host or cells: Xenopus laevis oocytes injected with cRNA; details: cited from earlier work
rASIC1a-rBASIC-loop = assay: Two-electrode voltage clamp, chimera rASIC1a-rBASIC-loop; type: cell-based, rat; details: 2 mM UDCA
Description: (§1) Clones for rat BASIC (accession No. NM_022227), mouse BASIC (accession No. NM_021370), rat ASIC1a (accession No. NM_024154) and HyNaC 2, 3 and 5 (accession No. AM393878, AM393880 and FN257513) were described previously, [15], [16]. Chimeras between BASIC and ASIC1a were generated by overlap PCR and PCR fragments were cloned into the expression vector pRSSP6009 [15] using the In-Fusion cloning kit (Invitrogen, Germany). Sequences were confirmed by sequencing. Plasmid DNAs were linearized using the restriction endonucleases MluI or NaeI. cRNA was synthesized from linearized plasmids using the SP6 mMessage mMachine kit (Ambion, USA).
(§2) Chemicals were purchased from Sigma or Merck.

rBASIC-rASIC1a-loop = assay: Two-electrode voltage clamp, chimera rBASIC-rASIC1a-loop; type: cell-based, rat; details: 2 mM UDCA
Description: as §1, §2

[6] = test system: rASIC1a-rBASIC-loop 1, - 2 and -3; assay: Two-electrode voltage clamp, chimeras rASIC1a-rBASIC-loop 1, -2 and -3; type: cell-based, rat; details: 2 mM UDCA
Description: as §1, §2

[7] = test system: rASIC1a rBASIC loop 1–2, rASIC1a rBASIC loop 2–3; assay: Two-electrode voltage clamp, chimeras rASIC1a rBASIC loop 1–2 and loop 2–3; type: cell-based, rat; details: 2 mM UDCA
Description: as §1, §2

[8] = test system: rASIC1a-rBASIC-TM1, -TM2 or -TM; assay: Two-electrode voltage clamp, chimeras rASIC1a-rBASIC-TM1, -TM2 or -TM; type: cell-based, rat; details: 2 mM UDCA
Description: as §1, §2

rat ASIC1a = assay: Two-electrode voltage clamp, oocytes expressing rat ASIC1a; details: 400 µM SDS, 500 µM NL, 100 µM Triton-X 100, 2 mM UDCA
non-injected oocytes = assay: Two-electrode voltage clamp, non-injected control oocytes
[9] = test system: Hydra Na^+ Channel (HyNaC) 2/3/5; assay: Two-electrode voltage clamp, oocytes expressing HyNaC2/3/5; type: cell-based; details: 400 µM SDS, 500 µM NL, 100 µM Triton-X 100, 5 µM RFamide I
[10] = 2 mM UDCA, 500 µM CPZ, 10 mM TNP, 100 µM Triton-X 100, 500 µM NL, 400 µM SDS, n = 8
[11] = 400 µM SDS, 500 µM N-lauroylsarcosine, 100 µM Triton-X 100, n = 7
[12] = 400 µM SDS, 500 µM NL, 100 µM Triton-X 100, n = 8

solubility [1]: ≤ 500 µM | decrease of the response of BASIC to 2 mM UDCA (rat BASIC [3]; 0.5 mM CPZ co-applied with 2 mM UDCA): 2.0 fold
Compound: CN(C)CCCN1c2ccccc2Sc2ccc(Cl)cc21 [CPZ, chlorpromazine]
activity of mouse BASIC, normalized to the amiloride-sensitive current (mouse BASIC [2]; [10]): 0.95 fold

effect of diminazene on BASIC currents (rat BASIC [3]; 100 µM DIMI alone or together with SDS, NL or Triton-X 100): inhibited BASIC currents | DIMI-sensitive current in the absence of stimulatory substances (rat BASIC [3]; n = 8): 0.25±0.03 µA
Compound: N=C(N)c1ccc(/N=N/Nc2ccc(C(=N)N)cc2)cc1 [diminazene]

increase of the low-activity (DIMI-sensitive) BASIC currents (rat BASIC [3]; [12]): 2 fold | effect on currents when applied in the presence of diminazene (rat BASIC [3]; co-applied with diminazene): did not increase currents
Compound: CCCCCCCCCCCCOS(=O)(=O)[O-].[Na+] [SDS]
activation of HyNaC 2/3/5 [9]: not activated | current in un-injected oocytes (non-injected oocytes; [11]): 34±0.6 nA | activation of ASIC1a (rat ASIC1a): not activated | activity of mouse BASIC, normalized to the amiloride-sensitive current (mouse BASIC [2]; [10]): 1.5 fold

effect of cholesterol removal on rBASIC activity (rat BASIC [3]; 20 mM MβCD, approximately 2 h, control, −Ca^2+ and 2 mM UDCA): does not influence rBASIC activity
Compound: MβCD

increase of the low-activity (DIMI-sensitive) BASIC currents (rat BASIC [3]; [12]): 3 fold | effect on currents when applied in the presence of diminazene (rat BASIC [3]; co-applied with diminazene): did not increase currents
Compound: CCCCCCCCCCCC(=O)N(C)CC(=O)O [NL, N-lauroylsarcosine]
activation of HyNaC 2/3/5 [9]: not activated | current in un-injected oocytes (non-injected oocytes; [11]): 35±0.8 nA | activation of ASIC1a (rat ASIC1a): not activated | activity of mouse BASIC, normalized to the amiloride-sensitive current (mouse BASIC [2]; [10]): 1.5 fold

The remaining lines, values behind:

Compound: O=C(O)c1ccccc1Nc1cccc(C(F)(F)F)c1 [FFA, flufenamic acid]
effect on mouse BASIC (mouse BASIC [4]): not affected | activation of human BASIC (human BASIC): activated | activation of rat BASIC (rat BASIC [5]): activated

Compound: CC(C)CCC[C@@H](C)[C@H]1CC[C@H]2[C@@H]3CC=C4C[C@@H](O)CC[C@]4(C)[C@H]3CC[C@]12C [cholesterol]
effect of cholesterol application on rBASIC dependent current (rat BASIC [3]; 2 mM MβCD-balanced water-soluble cholesterol, 10 sec): did not affect the rBASIC dependent current

Compound: C[C@H](CCC(=O)NCCS(=O)(=O)O)[C@H]1CC[C@H]2[C@@H]3[C@@H](O)C[C@@H]4C[C@H](O)CC[C@]4(C)[C@H]3CC[C@]12C [UDCA, tauroursodeoxycholic acid]
UDCA sensitivity of chimera rASIC1a-rBASIC-loop (rASIC1a-rBASIC-loop): weakly sensitive to UDCA | response to UDCA of chimera rBASIC-rASIC1a-loop compared to removal of divalent cations (rBASIC-rASIC1a-loop): extremely weak | response to UDCA of chimeras rASIC1a-rBASIC-loop 1, -2 and -3 [6]: responded weakly to UDCA | activation by UDCA of chimeras loop 1–2 and loop 2–3 [7]: weakly activated by UDCA | activation by UDCA of chimeras rASIC1a-rBASIC-TM1, -TM2, -TM [8]: activated by UDCA | activation of ASIC1a (rat ASIC1a): not activate ASIC1a | activity of mouse BASIC, normalized to the amiloride-sensitive current (mouse BASIC [2]; [10]): 1.3 fold | EC50 (rat BASIC [3]): 2700 ± 60 µM | activation of BASIC (rat BASIC [3]; 2 mM UDCA): strongly activated BASIC | maximum current at 5 mM UDCA (rat BASIC [3]; 5 mM UDCA, n = 10): 23.8±2.4 µA

Compound: [Gd+3] [Gd^3+, gadolinium]
response of non-injected control oocytes (non-injected oocytes): did not respond | effect on UDCA-dependent activation of BASIC (rat BASIC [3]; 100 µM Gd^3+ co-applied with 2 mM UDCA): completely abolished | IC50 (rat BASIC [3]; in the absence of UDCA (resting state), n = 8): 102 ± 34 µM | IC50 (rat BASIC [3]; in the presence of 2 mM UDCA, n = 8): 19 ± 7 µM

Compound: Triton-X 100
activation of HyNaC 2/3/5 [9]: not activated | current in un-injected oocytes (non-injected oocytes): 35±0.8 nA | activation of ASIC1a (rat ASIC1a): not activated | activity of mouse BASIC, normalized to the amiloride-sensitive current (mouse BASIC [2]): 1.2 fold | effect on currents when applied in the presence of diminazene (rat BASIC [3]): inhibited by diminazene | increase of the low-activity (DIMI-sensitive) BASIC currents (rat BASIC [3]): 1.5 fold
